Test results from US20090005364A1, “Azole Derivatives With Antimuscarinic Activity” (priority 2004, published 2009).

Assays:
human M2-receptors = target: T1, human M2-receptors (Homo sapiens, UniProt P08172); assay: radioligand binding assay, M2 receptor ([3H]-N-methyl scopolamine); details: membranes of CHO-K1 cells expressing human M2; [3H]-N-methyl scopolamine 0.1-0.3 nM; 60 min, room temperature
T1 construct: expressed in transfected cells; host or cells: CHO-K1 clone cells; crude membrane fraction
T1 sequence (P08172 1-466): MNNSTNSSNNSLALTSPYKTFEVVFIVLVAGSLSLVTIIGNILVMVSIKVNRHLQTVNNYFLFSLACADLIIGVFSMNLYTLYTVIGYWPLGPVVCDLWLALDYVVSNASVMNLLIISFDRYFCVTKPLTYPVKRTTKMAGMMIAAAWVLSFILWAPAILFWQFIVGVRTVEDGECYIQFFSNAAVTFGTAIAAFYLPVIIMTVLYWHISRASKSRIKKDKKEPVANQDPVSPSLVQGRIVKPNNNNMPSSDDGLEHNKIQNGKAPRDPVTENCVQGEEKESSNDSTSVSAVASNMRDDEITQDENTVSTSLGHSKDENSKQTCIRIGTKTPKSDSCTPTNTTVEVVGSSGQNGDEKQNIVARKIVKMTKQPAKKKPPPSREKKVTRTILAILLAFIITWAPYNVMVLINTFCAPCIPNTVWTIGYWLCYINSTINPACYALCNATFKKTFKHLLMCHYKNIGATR
Protocol: (§1) Cell Lines and Membrane Preparations
(§2) CHO—K1 clone cells expressing the human M1, M2 or M3-receptors (Swissprot P11229, P08172, P20309 respectively) were harvested in Ca^++/Mg^++ free phosphate-buffered saline and collected by centrifugation at 1500 rpm for 3 min. The pellets were resuspended in ice cold buffer A (15 mM Tris-HCl pH 7.4, 2 mM MgCl2, 0.3 mM EDTA, 1 mM EGTA) and homogenized by a PBI politron (setting 5 for 15 s).
(§3) Radioligand Binding Conditions
(§4) The day of experiment, frozen membranes were resuspended in buffer C (50 mM Tris-HCl pH 7.4, 2.5 mM MgCl2, 1 mM EDTA). […] The non specific binding was determined in the presence of cold N-methyl scopolamine 10 μM. Samples (final volume 0.75 ml) were incubated at room temperature for 120 min for Ml, 60 min for M2 and 90 min for M3 binding assay. The reaction was terminated by rapid filtration through GF/B Unifilter plates and two washes (0.75 ml) with cold buffer C using a Packard Filtermate Harvester. Radioactivity on the filters was measured by a microplate scintillation counter TopCount NXT (Camberra Packard).

human M3-receptors = target: T2, human M3-receptors (Homo sapiens, UniProt P20309); assay: radioligand binding assay, M3 receptor ([3H]-N-methyl scopolamine); details: membranes of CHO-K1 cells expressing human M3; [3H]-N-methyl scopolamine 0.1-0.3 nM; 90 min, room temperature
T2 construct: expressed in transfected cells; host or cells: CHO-K1 clone cells; crude membrane fraction
T2 sequence (P20309 whole entry): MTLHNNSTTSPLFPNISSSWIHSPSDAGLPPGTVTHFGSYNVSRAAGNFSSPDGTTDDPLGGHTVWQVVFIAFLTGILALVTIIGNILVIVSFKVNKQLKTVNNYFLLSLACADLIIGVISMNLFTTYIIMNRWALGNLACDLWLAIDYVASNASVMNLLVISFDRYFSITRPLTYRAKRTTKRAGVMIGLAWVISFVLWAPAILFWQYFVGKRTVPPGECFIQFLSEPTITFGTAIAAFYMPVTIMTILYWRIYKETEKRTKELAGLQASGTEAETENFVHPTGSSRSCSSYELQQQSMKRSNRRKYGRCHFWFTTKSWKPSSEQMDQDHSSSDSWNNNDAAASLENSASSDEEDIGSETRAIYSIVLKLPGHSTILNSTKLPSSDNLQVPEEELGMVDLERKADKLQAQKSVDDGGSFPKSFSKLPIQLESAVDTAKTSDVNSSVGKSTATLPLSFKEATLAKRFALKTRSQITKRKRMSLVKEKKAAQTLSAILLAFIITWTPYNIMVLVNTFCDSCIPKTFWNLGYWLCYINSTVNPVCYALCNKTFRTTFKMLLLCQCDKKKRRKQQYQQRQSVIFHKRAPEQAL
Protocol: as §1, §2, §3, §4

Ki (human M2-receptors)	Ki (human M3-receptors)	SMILES
955 nM	–	O=C1NC(c2ccc(F)cc2)(c2ccc(F)cc2)CN1C1CCN(Cc2cccc(Cl)c2)CC1 [Compound 18ab]
187 nM	–	O=C1NC(c2cccs2)(c2cccs2)CN1C1CCN(Cc2cccc(F)c2)CC1 [Compound 18ad]
107 nM	–	Cc1cccc(CN2CCC(N3CC(c4cccs4)(c4cccs4)NC3=O)CC2)c1 [Compound 18ag]
1140 nM	–	O=C1NC(c2ccc(F)cc2)(c2ccc(F)cc2)CN1C1CCN(Cc2cccc(F)c2)CC1 [Compound 18an]
327 nM	–	O=C1NC(c2ccccc2)(c2ccccc2)CN1C1CCN(Cc2cccc(Cl)c2)CC1 [Compound 18e]
224 nM	–	Cc1cccc(CN2CCC(N3CC(c4ccccc4)(c4ccccc4)NC3=O)CC2)c1 [Compound 18i]
80.9 nM	1.96 nM	C[N+]1(CC(=O)c2cccs2)CC[C@@H](N2CC(c3ccc(F)cc3)(c3ccc(F)cc3)NC2=O)C1 (some centres unmarked) [Compound 19bp]
88.5 nM	1.62 nM	C[N+]1(CC(=O)c2cccs2)CC[C@@H](N2CC(c3ccc(F)cc3)(c3ccc(F)cc3)NC2=O)C1 (some centres unmarked) [Compound 19bq]
80.1 nM	–	O=C1NC(c2ccccc2)(c2ccccc2)CN1C1CCN(Cc2ccccc2)CC1 [Compound 27a, 3-(1-benzyl-piperidin-4-yl)-5 5-diphenyl-imidazolidin-2-one]
73.3 nM	–	O=C1NC(c2ccccc2)(C2CCCCC2)CN1C1CCN(Cc2ccccc2)CC1 (centres unmarked) [Compound 27c]
206 nM	–	O=C1NC(c2ccc(F)cc2)(c2ccc(F)cc2)CN1C1CCN(Cc2ccccc2)CC1 [Compound 27h]
96.8 nM	–	O=C1NC(c2cccs2)(c2cccs2)CN1C1CCN(Cc2ccccc2)CC1 [Compound 27i]
